Data as given in patent US20050009840A1 (SUGEN, INC., priority 2003, published 2005).

These compounds were tested against T1, Met kinase domain (GST fusion protein) (Homo sapiens, UniProt P08581) (assay: Met transphosphorylation assay (ELISA, poly(glu-tyr) substrate)). Details: Table 2; read-out: Met IC50.
T1 construct: Purified GST fusion protein containing the Met kinase domain
Format: biochemical
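Note: Cell-free ELISA with plate-bound poly(Glu:Tyr 4:1) phosphorylated by GST-fused Met kinase domain plus ATP and Mn2+, phosphotyrosine detected by anti-phosphotyrosine antibody with HRP and ABTS read-out.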

T1 sequence (P08581 1078-1345 limits assumed): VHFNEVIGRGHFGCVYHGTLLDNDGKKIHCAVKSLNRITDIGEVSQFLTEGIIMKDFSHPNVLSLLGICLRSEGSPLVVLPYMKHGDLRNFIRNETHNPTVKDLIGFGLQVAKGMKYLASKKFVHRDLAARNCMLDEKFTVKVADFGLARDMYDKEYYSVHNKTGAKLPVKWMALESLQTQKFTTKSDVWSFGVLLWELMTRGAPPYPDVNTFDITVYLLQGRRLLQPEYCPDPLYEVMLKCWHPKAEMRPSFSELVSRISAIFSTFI

Row | SMILES | IC50 [nM]
1 | Nc1ncc(-c2ccc(NS(=O)(=O)CCNC3CC3)cc2)cc1OCc1c(F)ccc(F)c1Cl [Example I-244, 2-Cydopropylamino-ethanesulfonic acid {4-[6-amino-5-(2-chloro-3,6-difluoro-benzyloxy)-pyridin-3-yl]-phenyl}-amide] | 81
2 | Nc1ncc(-c2ccc(NS(=O)(=O)CCN3CCC(O)CC3)cc2)cc1OCc1c(F)ccc(F)c1Cl [Example I-246, 2-(4-Hydoxy-piperidin-1-yl)-ethanesulfonic acid {4-[6-amino-5-(2-chloro-3,6-difluoro-benzyloxy)-pyridin-3-yl]-phenyl}-amide] | 135
3 | Nc1ncc(-c2ccc(NS(=O)(=O)CCN3CCCCC3)cc2)cc1OCc1c(F)ccc(F)c1Cl [Example I-248, 2-Pipendin-1-yl-ethanesulfonic acid {4-[6-amino-5-(2-chloro-3,6-difluoro-benzyloxy)-pyridin-3-yl]-phenyl}-amide] | 114
4 | Nc1ncc(-c2ccc(NS(=O)(=O)CCNCC3CC3)cc2)cc1OCc1c(F)ccc(F)c1Cl [Example I-251, 2-(Cyclopropylmethyl-amino)-ethanesulfonic acid {4-[6-amino-5-(2-chloro-3,6-difluoro-benzyloxy)-pyridin-3-yl]-phenyl}-amide] | 75
5 | Nc1ncc(-c2ccc(NS(=O)(=O)CCN3CCC[C@H]3CO)cc2)cc1OCc1c(F)ccc(F)c1Cl [Example I-253, 2-[(2S)-2-Hydroxymethyl-pyrrolidin-1-yl]-ethanesulfonic acid {4-[6-amino-5-(2-chloro-3,6-difluoro-benzyloxy)-pyridin-3-yl]-phenyl}-amide] | 97
6 | CC(=O)N1CCN(CCS(=O)(=O)Nc2cccc(-c3cnc(N)c(OCc4c(F)ccc(F)c4Cl)c3)c2)CC1 [Example I-255, 2-(4-Acetyl-piperazin-1-yl)-ethanesulfonic acid {3-[6-amino-5-(2-chloro-3,6-difluoro-benzyloxy)-pyridin-3-yl]-phenyl}-amide] | 680

The remaining compounds from weak to strong by IC50, led by results:

Row | IC50 [nM] | SMILES
7 | 420 | CC(=O)N1CCN(CCS(=O)(=O)Nc2ccc(-c3cnc(N)c(OCc4c(F)ccc(F)c4Cl)c3)cc2)CC1 [Example I-250, 2-(4-Acetyl-piperazin-1-yl)-ethanesulfonic acid {4-[6-amino-5-(2-chloro-3,6-difluoro-benzyloxy)-pyridin-3-yl]-phenyl}-amide]
8 | 310 | Nc1ncc(-c2ccc(NS(=O)(=O)CCN3CCOCC3)cc2)cc1OCc1c(F)ccc(F)c1Cl [Example I-247, 2-Morpholin-4-yl-ethanesulfonic acid {4-[6-amino-5-(2-chloro-3,6-difluoro-benzyloxy)-pyridin-3-yl]-phenyl}-amide]
9 | 230 | Nc1ncc(-c2cccc(NS(=O)(=O)CCN3CCCC3)c2)cc1OCc1c(F)ccc(F)c1Cl [Example I-256, 2-Pyrrolidin-1-yl-ethanesulfonic acid {3-[6-amino-5-(2-chloro-3,6-difluoro-benzyloxy)-pyridin-3-yl]-phenyl}-amide]
10 | 180 | Nc1ncc(-c2ccc(NS(=O)(=O)CCN3CCN(C(=O)CO)CC3)cc2)cc1OCc1c(F)ccc(F)c1Cl [Example I-254, 2-[4-(2-Hydroxy-acetyl)-piperazin-1-yl]-ethanesulfonic acid {4-[6-amino-5-(2-chloro-3,6-difluoro-benzyloxy)-pyridin 3-yl]-phenyl}-amide]
11 | 125 | Nc1ncc(-c2ccc(NS(=O)(=O)CCN3CC[C@@H](O)C3)cc2)cc1OCc1c(F)ccc(F)c1Cl [Example I-252, 2-[(3R)-3-Hydroxy-pyrrolidin-1-yl]-ethanesulfonic acid {4-[6-amino-5-(2-chloro-3,6-difluoro-benzyloxy)-pyridin-3-yl]-phenyl}-amide]
12 | 98 | CN(C)CCS(=O)(=O)Nc1ccc(-c2cnc(N)c(OCc3c(F)ccc(F)c3Cl)c2)cc1 [Example I-249, 2-Dimethylamino-ethanesulfonic acid {4-[6-amino-5-(2-chloro-3,6-difluoro-benzyloxy)-pyridin-3-yl]-phenyl}-amide]
13 | 82 | Nc1ncc(-c2ccc(NS(=O)(=O)CCN3CCCC3)cc2)cc1OCc1c(F)ccc(F)c1Cl [Example I-245]
